Assays:
BSA = molecular target: T1, BSA (Bos taurus, UniProt P02769); assay: Formation and degradation of albumin-bound DNIC in cell culturing media with FBS (EPR); type: in vitro ADME, bovine
T1 construct: 2 mL of αMEM with the presence of 20% FBS; from tissue; host or cells: fetal bovine serum (FBS) in αMEM / MEM / HSFM culture media
Experimental: 50 μM of DNIC–COOH was prepared via addition of 1 μL of 100 mM stock solution of DNIC–COOH in DMSO to 2 mL of αMEM with the presence of 20% FBS. After this solution was incubated at 37 °C for 0, 0.5, 1, 2, 3, 4, 8, and 24 h, respectively, EPR spectra of 100 μL aliquots of this solution were measured. Moreover, double integration of the EPR signal was executed to obtain the integrated EPR signal intensity under each condition, which was further utilized to characterize the time-dependent formation and degradation of BSA-bound DNIC. EPR investigations on the formation and degradation of protein-bound DNICs upon incubation of (1) 50 μM DNIC–COOMe in αMEM with the presence of 20% FBS, (2) 50 μM DNIC–COOH (or DNIC–COOMe) in MEM with the presence of 5% FBS, and (3) 50 μM DNIC–COOH (or DNIC–COOMe) in HSFM with the presence of 2% FBS were performed in a similar manner. In addition, EPR spectra for 50 μM of DNIC–COOH (or 50 μM of DNIC–COOMe) in αMEM, MEM, and HSFM, respectively, were also measured.

HCEC = assay: Whole-cell EPR: cellular uptake and intracellular formation/decomposition of mononuclear DNIC in HCEC; type: cell-based, human; conditions: for tmax for cellular uptake and intracellular transformation (whole-cell EPR): normoxia, 75 μM DNIC–COOH or 1 μM DNIC–COOMe
Experimental: Cellular uptake of DNIC–COOH and intracellular formation/decomposition of mononuclear DNICs in MSC/N2a/HCEC cells were investigated using EPR spectroscopy. Briefly, cells were seeded into two (or one) 100 mm dish(es) at a density of 2 × 10^6 cells/dish and incubated at 37 °C overnight. On the next day, cells were treated with 100 μM of DNIC–COOH (or 100 μM of DNIC–COOH to N2a and 75 μM of DNIC–COOH to HCEC) and incubated for 0, 0.5, 1, 2, 3, 4, 8, and 24 h, respectively. After removal of the supernatant solution, cells were washed with DPBS before addition of 1 mL of trypsin (0.05%)/EDTA (0.53 mM) and incubation for 5 min at 37 °C. After the obtained cell suspension solutions from two 100 mm dishes were combined and centrifuged at 100g for 5 min, the supernatant was removed before addition of 100 μL of αMEM to DNIC-treated MSC (or MEM to DNIC-treated N2a and HSFM to DNIC-treated HCEC). This solution was then transferred into EPR quartz tube and frozen in N2(l) before the EPR measurements. For each measured EPR spectrum, double integration was executed to obtain the integrated EPR intensity under each condition. Moreover, time-dependent decay of integrated EPR signal intensity after treatment of DNIC–COOH was fit to pseudo-first-order kinetics in order to determine the intracellular half-life for EPR-active mononuclear DNIC. Three independent experiments were executed to measure the average half-life for intracellular decomposition of EPR-active mononuclear DNIC after treatment with DNIC–COOH at 37 °C. On the other hand, at the time point with maximum integrated EPR signal intensity, spin quantitation of intracellular EPR-active DNICs was performed using mononuclear DNIC [PPN][(NO)2Fe(S5)] as a standard according to the methodology used in the previous work.[50] Cellular uptake of DNIC–COOMe (2.5 μM to MSC, 10 μM to N2a, or 1 μM to HCEC) and intracellular formation/decomposition of EPR-active mononuclear DNICs were investigated using EPR spectroscopy in a similar manner.
Studies of cellular uptake mechanisms were investigated using EPR spectroscopy in combination with pretreatments of alternative inhibitors. After the MSC cells were seeded into two (or one) 100 mm dish(es) at a density of 2 × 10^6 cells/dish and incubated at 37 °C overnight, sequential treatments of 50 μM of NEM for 0.5 h and 100 μM of DNIC–COOH for 2 h were performed before the treated MSC cells were collected for EPR measurement following the procedure described above. […]

[1] = Log D7.4 / Log P by n-octanol partitioning (UV–vis); type: physicochemical; conditions: for Log D7.4: PBS (pH 7.4)/n-octanol
Experimental: PBS (pH 7.4) and n-octanol were fully degassed before use. After adding 20 μL of 100 mM stock solution of DNIC–COOH in DMSO to 19.98 mL of PBS (pH 7.4), 2 mL of this 100 μM DNIC–COOH solution was added with 2 mL of n-octanol. This mixture solution was vortexed thoroughly for 30 s and incubated until the two solutions were separated. UV–vis spectra of DNIC–COOH in PBS (pH 7.4) and n-octanol were measured in order to determine Log D7.4 using the equation shown below:[96] [drawing 1] AO is the A362 in n-octanol, and APBS is the A362 in PBS (pH 7.4) after partitioning. Log D7.4 for DNIC–COOMe was determined in a similar manner. On the other hand, the Log P value for DNIC–COOH was measured based on its distribution in ddH2O and n-octanol using a similar procedure.[97],[98]

T1 sequence (P02769 25-607): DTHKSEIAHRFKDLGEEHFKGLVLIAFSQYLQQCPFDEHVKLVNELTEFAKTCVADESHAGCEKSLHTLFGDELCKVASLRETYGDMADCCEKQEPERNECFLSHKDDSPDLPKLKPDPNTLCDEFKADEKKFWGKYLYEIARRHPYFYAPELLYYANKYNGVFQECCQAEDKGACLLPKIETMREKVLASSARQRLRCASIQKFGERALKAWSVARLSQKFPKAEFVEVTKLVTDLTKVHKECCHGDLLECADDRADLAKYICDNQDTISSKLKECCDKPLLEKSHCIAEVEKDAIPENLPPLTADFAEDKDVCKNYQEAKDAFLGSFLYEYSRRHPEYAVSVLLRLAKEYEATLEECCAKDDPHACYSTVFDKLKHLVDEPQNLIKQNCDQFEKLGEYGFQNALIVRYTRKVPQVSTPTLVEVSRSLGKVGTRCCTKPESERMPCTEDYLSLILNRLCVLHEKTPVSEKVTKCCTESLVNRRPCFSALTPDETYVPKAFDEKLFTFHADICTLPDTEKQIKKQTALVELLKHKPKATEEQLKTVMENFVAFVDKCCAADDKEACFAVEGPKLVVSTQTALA

SMILES	binding to BSA yielding albumin-bound DNIC (BSA)	tmax for cellular uptake and intracellular transformation (whole-cell EPR) (HCEC; HCEC)	relative whole-cell EPR signal intensity at gav = 2.03 (control = 100%) (HCEC; MβCD-treated HCEC)	relative whole-cell EPR signal intensity at gav = 2.03 (control = 100%) (HCEC; genistein-treated HCEC)	Log D7.4 [1]	Log P ([1]; ddH2O/n-octanol)	relative whole-cell EPR signal intensity at gav = 2.03 (control = 100%) (HCEC; HCEC, native FBS replaced with 2% NEM-treated FBS)	relative whole-cell EPR signal intensity at gav = 2.03 (control = 100%) (HCEC; HCEC, pretreatment of NEM 0.5 h, then DNIC–COOMe 0.5 h, reduction)
O=[N][Fe]1([N]=O)[SH](CCC(=O)O)[Fe]([N]=O)([N]=O)[SH]1CCC(=O)O (centres unmarked) [DNIC–COOH, [(NO)2Fe(μ-SCH2CH2COOH)2Fe(NO)2]]	slow binding	8 h	77.5 ± 11.1%	72.1 ± 5.9%	−2.3	1.2	–	–
COC(=O)CC[SH]1[Fe]([N]=O)([N]=O)[SH](CCC(=O)OC)[Fe]1([N]=O)[N]=O (centres unmarked) [DNIC–COOMe, [(NO)2Fe(μ-SCH2CH2COOCH3)2Fe(NO)2]]	rapid binding	0.5 h	–	–	1.0	–	99.9 ± 15.3%	35.8 ± 2.3%
